Measurements as given in patent US4574127A, “Oxazoles and thiazoles containing an aminohydroxypropoxyphenyl moiety” (Merck & Co., Inc., priority 1984, dated 1986).

How the values were obtained:
β2 [1] = target: T1, β2 (Cavia porcellus, UniProt Q8K4Z4); test: β2 potency: inhibition of isoproterenol-induced relaxation of isolated guinea pig tracheal chains contracted with PGF2α; settings: isolated guinea pig tracheal chains contracted with PGF2α, vs isoproterenol, in vitro; for Kb: read-out: β2 pA2 (converted)
T1 construct: isolated guinea pig tracheal chains; from tissue; host or cells: guinea pig trachea
T1 sequence (Q8K4Z4 whole entry): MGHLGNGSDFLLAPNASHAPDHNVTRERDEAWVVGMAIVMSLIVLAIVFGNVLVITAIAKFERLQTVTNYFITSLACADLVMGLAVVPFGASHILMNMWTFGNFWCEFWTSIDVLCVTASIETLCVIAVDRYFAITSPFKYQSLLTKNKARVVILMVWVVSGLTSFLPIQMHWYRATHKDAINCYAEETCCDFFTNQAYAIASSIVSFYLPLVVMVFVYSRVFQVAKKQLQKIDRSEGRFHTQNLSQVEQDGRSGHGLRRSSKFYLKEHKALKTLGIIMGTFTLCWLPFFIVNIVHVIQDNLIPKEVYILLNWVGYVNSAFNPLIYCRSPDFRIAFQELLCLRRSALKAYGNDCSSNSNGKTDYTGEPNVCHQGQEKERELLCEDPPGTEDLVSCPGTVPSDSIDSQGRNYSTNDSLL
Description: (§1) Expressed in different terms, a smaller amount of a compound of the invention is required to block isoproterenol-induced elevation in heart rate than is required to block the isoproterenol-induced relaxation of the bronchi. […] Med. Chem., 26, 956-7 (1983) pursuant to which in vitro β-adrenergic blocking activity is determined by the interaction with β1 -receptor via inhibition of the positive chronotropic actions of isoproterenol in isolated guinea pig atrial preparations. β2 potency is determined by using isolated guinea pig tracheal chains contracted with PGF2α and by measuring inhibition of isopreterenol-induced relaxation.

β2 [2] = test: as above; settings: ratio of ED50 for pulmonary effect (β2) : ED50 for cardiac effect (β1); over 1 = cardioselective
Description: as §1

β1-receptor = target: T2, β1-receptor (Cavia porcellus, UniProt H0W3H1); test: in vitro β-adrenergic blocking activity: inhibition of positive chronotropic actions of isoproterenol in isolated guinea pig atrial preparations; settings: vs isoproterenol, read-out: β1 pA2 (converted)
T2 construct: isolated guinea pig atrial preparations; from tissue; host or cells: guinea pig atria
T2 sequence (H0W3H1 1-470): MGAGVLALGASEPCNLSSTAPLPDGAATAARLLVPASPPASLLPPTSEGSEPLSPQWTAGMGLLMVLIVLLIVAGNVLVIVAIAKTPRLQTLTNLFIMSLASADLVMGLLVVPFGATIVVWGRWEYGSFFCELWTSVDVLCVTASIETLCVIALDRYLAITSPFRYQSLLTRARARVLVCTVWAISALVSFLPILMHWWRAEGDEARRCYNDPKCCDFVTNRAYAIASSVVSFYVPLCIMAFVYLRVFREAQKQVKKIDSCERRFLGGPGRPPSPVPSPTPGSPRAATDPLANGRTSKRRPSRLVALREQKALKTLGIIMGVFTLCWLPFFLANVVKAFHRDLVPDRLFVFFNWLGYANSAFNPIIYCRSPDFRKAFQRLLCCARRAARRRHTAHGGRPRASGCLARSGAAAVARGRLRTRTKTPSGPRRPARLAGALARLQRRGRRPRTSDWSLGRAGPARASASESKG
Description: as §1

Structure (SMILES)	β2 pA2 (β2 [1])	β2:β1 ratio (cardioselectivity) (β2 [2])	Kb (β1-receptor)	Kb (β2 [1])
COc1ccc(CCNCC(O)COc2ccc(-c3ncco3)cc2)cc1OC (stereo not drawn) [Example 1, 2-{p-[3-(3,4-Dimethoxyphenethylamino)-2-hydroxypropoxy]phenyl}oxazole]	4.67	19	1120 nM	–
OC(CNC1CC1)COc1ccc(-c2nccs2)cc1 (stereo not drawn) [Example 3, 2-[p-(3-Cyclopropylamino-2-hydroxypropoxy)phenyl]thiazole]	–	85	2340 nM	200000 nM
COc1ccc(CCNC[C@H](O)COc2ccc(-c3nccs3)cc2)cc1OC [Example 2, (S) 2-{p-[3-(3,4-Dimethoxyphenylethyl)amino-2-hydroxypropoxy]phenyl}thiazole]	–	813	58.9 nM	47900 nM
